Source: ChEMBL document CHEMBL1201862, “PubChem BioAssay data set” (2004)
Calls of active or inactive are those of the source.

How the values were obtained:
Cytochrome P450 2C19 = Cytochrome P450 2C19 (Homo sapiens, UniProt P33261); experiment: Cytochrome panel assay with activity outcomes. Panel member name: p450-cyp2c19 Compounds with AC50 equal or less than 10 uM are considered active; format: functional
[1] = molecular target: T1, Heat shock factor protein 1 (Mus musculus, UniProt P38532); experiment: decrease of HSF1-responsive luciferase luminescence – cell-based, NIH3T3, dose retest, confirmation (AID 2382); format: functional;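 further: NIH3T3 fibroblasts with HSF1-driven luciferase reporter stressed by proteasome inhibitor MG132; luminescence from HSF1-driven luciferase expression after 8 hours of MG132 stress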
T1 sequence (P38532 whole entry): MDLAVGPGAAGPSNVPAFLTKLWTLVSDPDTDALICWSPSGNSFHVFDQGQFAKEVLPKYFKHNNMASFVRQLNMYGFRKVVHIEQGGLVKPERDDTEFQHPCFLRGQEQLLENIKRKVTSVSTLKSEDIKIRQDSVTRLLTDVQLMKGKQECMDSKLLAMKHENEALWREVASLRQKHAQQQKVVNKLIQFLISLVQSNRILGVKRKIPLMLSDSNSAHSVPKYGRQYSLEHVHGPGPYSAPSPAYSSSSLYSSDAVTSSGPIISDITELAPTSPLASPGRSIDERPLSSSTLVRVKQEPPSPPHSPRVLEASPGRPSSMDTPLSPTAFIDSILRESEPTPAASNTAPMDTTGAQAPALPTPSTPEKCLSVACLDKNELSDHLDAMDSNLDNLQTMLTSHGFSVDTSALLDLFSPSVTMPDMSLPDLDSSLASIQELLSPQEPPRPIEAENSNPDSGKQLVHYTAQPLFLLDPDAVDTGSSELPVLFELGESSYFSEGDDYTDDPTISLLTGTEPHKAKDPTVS

Cytochrome P450 2C9 = Cytochrome P450 2C9 (Homo sapiens, UniProt P11712)
Cytochrome P450 3A4 = Cytochrome P450 3A4 (Homo sapiens, UniProt P08684);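 further: CYP3A4 tested as one member of a cytochrome P450 panel screen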
[2] = Trypanosoma cruzi growth suppression in host cells – NIH3T3 host cells, beta-gal luminescence, confirmation (AID 2044); format: functional, cell-based;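 further: intracellular parasites grown in NIH/3T3 mouse fibroblasts as host cells; luminescent beta-galactosidase reporter signal from transgenic T. cruzi replicating inside host cells; inhibitors lower the luminescence signal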
[3] = NIH3T3 cell viability loss – ATP luminescence, mouse fibroblasts, counter-screen, dose response (AID 2010); format: functional, cell-based;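 further: cells exposed to compound for about 90 hours before reading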

Sequence of Cytochrome P450 2C9 (P11712 whole entry): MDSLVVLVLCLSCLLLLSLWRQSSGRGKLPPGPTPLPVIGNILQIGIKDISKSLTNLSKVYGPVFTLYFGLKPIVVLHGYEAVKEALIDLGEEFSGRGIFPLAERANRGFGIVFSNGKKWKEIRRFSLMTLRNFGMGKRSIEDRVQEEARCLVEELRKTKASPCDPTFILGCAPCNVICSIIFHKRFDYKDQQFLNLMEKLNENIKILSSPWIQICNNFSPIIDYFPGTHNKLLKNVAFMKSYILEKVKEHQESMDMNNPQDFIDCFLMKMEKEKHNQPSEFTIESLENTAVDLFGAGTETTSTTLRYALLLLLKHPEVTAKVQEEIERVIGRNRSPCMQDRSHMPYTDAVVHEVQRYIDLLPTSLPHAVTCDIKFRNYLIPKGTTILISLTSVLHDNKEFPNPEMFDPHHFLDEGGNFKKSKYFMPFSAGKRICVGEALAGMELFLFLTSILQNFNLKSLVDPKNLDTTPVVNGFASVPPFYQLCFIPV
Sequence of Cytochrome P450 2C19 (P33261 whole entry): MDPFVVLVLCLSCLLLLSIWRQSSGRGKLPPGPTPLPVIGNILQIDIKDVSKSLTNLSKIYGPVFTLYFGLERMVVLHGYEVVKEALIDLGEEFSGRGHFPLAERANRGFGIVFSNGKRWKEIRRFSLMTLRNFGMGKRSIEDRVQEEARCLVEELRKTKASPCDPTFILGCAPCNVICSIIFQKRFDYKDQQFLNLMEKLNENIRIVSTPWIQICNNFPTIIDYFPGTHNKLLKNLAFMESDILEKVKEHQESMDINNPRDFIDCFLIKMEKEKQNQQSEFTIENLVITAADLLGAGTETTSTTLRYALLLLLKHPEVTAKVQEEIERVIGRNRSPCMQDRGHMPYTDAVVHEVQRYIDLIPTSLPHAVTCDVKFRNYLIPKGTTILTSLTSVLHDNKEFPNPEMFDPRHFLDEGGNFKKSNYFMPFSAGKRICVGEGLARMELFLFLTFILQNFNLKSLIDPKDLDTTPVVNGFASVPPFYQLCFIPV
Sequence of Cytochrome P450 3A4 (P08684 whole entry): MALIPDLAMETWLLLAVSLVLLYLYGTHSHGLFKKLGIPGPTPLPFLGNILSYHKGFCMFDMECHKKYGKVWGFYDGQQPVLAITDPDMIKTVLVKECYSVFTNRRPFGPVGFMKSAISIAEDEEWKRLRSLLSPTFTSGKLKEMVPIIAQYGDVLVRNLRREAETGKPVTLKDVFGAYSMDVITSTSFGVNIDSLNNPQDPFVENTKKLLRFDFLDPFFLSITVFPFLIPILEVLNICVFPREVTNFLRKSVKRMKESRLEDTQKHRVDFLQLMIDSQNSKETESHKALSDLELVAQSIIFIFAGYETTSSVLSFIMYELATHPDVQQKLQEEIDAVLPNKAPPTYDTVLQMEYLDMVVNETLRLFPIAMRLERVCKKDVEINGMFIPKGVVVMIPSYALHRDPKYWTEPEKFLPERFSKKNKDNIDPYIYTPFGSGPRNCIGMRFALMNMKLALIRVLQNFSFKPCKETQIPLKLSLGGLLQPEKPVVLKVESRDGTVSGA

SMILES: CCOc1ccc(-c2nnc3ccc(SC)nn23)cc1
- AC50 (Cytochrome P450 2C19; read-out: AC50): 7.94 µM (inconclusive)

SMILES: Cc1cc(Cl)ccc1OCC(=O)Nc1nc(-c2cccnc2)cs1
- EC50 [1]: > 195 µM (not active)

SMILES: CC(=O)CC(=O)Nc1ccc2ccccc2c1
- AC50 (Cytochrome P450 2C19): inconclusive

SMILES: Cc1cc(N2CCOCC2)ncc1[N+](=O)[O-]
- AC50 (Cytochrome P450 2C9): 14.1 µM (inconclusive)

SMILES: Cc1ccc(C(=O)Nc2ccc(C(=O)/C=C/c3cccs3)cc2)cc1
- AC50 (Cytochrome P450 3A4): 5.01 µM (inconclusive)
- AC50 (Cytochrome P450 2C9): 11.2 µM (inconclusive)
- AC50 (Cytochrome P450 2C19; read-out: AC50): 7.08 µM (inconclusive)

SMILES: CCc1c(C)c(C#N)c2nc3ccccc3n2c1Nc1c(C)n(C)n(-c2ccccc2)c1=O
- AC50 (Cytochrome P450 2C9): 5.01 µM (inconclusive)
- AC50 (Cytochrome P450 2C19; read-out: AC50): 25.1 µM (inconclusive)

SMILES: Cc1cccn2c(=O)c3cc(C(=O)N4COCC4(C)C)n(C)c3nc12
- AC50 (Cytochrome P450 2C19; read-out: AC50): 4.47 µM (inconclusive)

SMILES: CN1CC[C@@]2(CCCN(C(=O)c3cc(C(F)(F)F)cc(C(F)(F)F)c3)C2)C1
- AC50 (Cytochrome P450 3A4): 25.1 µM (inconclusive)

SMILES: COc1ccc(-n2c(-c3ccccc3)nc(=S)c3c2CCCC3)cc1
- AC50 (Cytochrome P450 3A4): 20 µM (inconclusive)

SMILES: O=C(COC(=O)c1cccnc1Cl)c1ccccc1
- AC50 (Cytochrome P450 2C9): 17.8 µM (inconclusive)
- AC50 (Cytochrome P450 2C19; read-out: AC50): 39.8 µM (inconclusive)

SMILES: CS(=O)(=O)N1CCN(c2cccc(Cl)n2)CC1
- EC50 [1]: > 195 µM (not active)

SMILES: C=CCC(C(=O)OC)(C(=O)OC)c1ccc([N+](=O)[O-])cn1
- AC50 (Cytochrome P450 2C19; read-out: AC50): 14.1 µM (inconclusive)

SMILES: N=C(N)N[C@H](CCC(=O)O)C(=O)O
- AC50 (Cytochrome P450 3A4): 3.16 µM (inconclusive)

SMILES: Cc1cccc(CNc2nc(-c3ccc4c(c3)OCO4)nc3ccccc23)c1
- AC50 (Cytochrome P450 2C9): 1 µM (inconclusive)

SMILES: Cc1cccc(N(C(=O)C(F)(F)F)C(C(=O)NC2CCCCC2)c2cccs2)c1 (configuration not stated)
- EC50 [2]: 3.39 µM (active)
- EC50 [3]: > 60 µM (not active)

SMILES: CC(=O)Nc1ccccc1C(=O)OCC(=O)c1ccc2ccccc2c1
- AC50 (Cytochrome P450 2C19; read-out: AC50): 1.26 µM (inconclusive)

SMILES: CC(=O)Nc1ccc2c(c1)/C(=N/c1ccc(C(=O)O)cc1)c1ccccc1-2
- AC50 (Cytochrome P450 3A4): 3.98 µM (inconclusive)

SMILES: CCc1ccc(NC(=O)C2CCC(CNC(=O)[C@@H]3Cc4ccccc4CN3)CC2)cc1 (some centres not stated)
- EC50 [1]: > 195 µM (not active)

SMILES: COC(=O)[C@H]1C[C@@H]1[C@H](NC(=O)c1cc(C)on1)c1ccccc1
- AC50 (Cytochrome P450 3A4): 15.8 µM (inconclusive)
- AC50 (Cytochrome P450 2C9): 31.6 µM (inconclusive)

SMILES: c1cncc(CNc2nc(-c3ccoc3)nc3ccccc23)c1
- AC50 (Cytochrome P450 2C19; read-out: AC50): 20 µM (inconclusive)

SMILES: COc1ccc2c(c1)C=C(CN1CCN(C3CCCC3)C(CCO)C1)CO2 (configuration not stated)
- EC50 [2]: 1.75 µM (active)
- EC50 [3]: > 60 µM (not active)

SMILES: O=C(c1csnn1)N1CCC[C@@]2(CCN(Cc3nccs3)C2)C1
- AC50 (Cytochrome P450 2C19; read-out: AC50): 25.1 µM (inconclusive)

SMILES: COc1cccc(CN(C)CC2CCCN(CCc3ccc(Cl)cc3)C2)c1OC (configuration not stated)
- EC50 [1]: > 195 µM (not active)

SMILES: CN=C(S)N(CCc1c(C)[nH]c2ccc(Cl)cc12)Cc1cccs1
- EC50 [2]: 2.28 µM (active)
- EC50 [3]: > 30 µM (not active)

SMILES: N#Cc1cc(-c2ccc(Cl)cc2)cnc1Sc1ccccc1
- EC50 [2]: 3.77 µM (active)
- EC50 [3]: > 60 µM (not active)

SMILES: CCSc1nnc(NC(=O)Cc2ccc(OC)c(OC)c2)s1
- AC50 (Cytochrome P450 2C9): 2.82 µM (inconclusive)
- AC50 (Cytochrome P450 2C19; read-out: AC50): 28.2 µM (inconclusive)

SMILES: CC(C)(C)c1ccc(C(=O)Nc2cccc3c(=O)[nH][nH]c(=O)c23)cc1
- EC50 [1]: 3.66 µM (active)

SMILES: Cc1ccc(C)c(N2CN(Cc3cccnc3)CN=C2S)c1
- EC50 [2]: 0.726 µM (active)
- EC50 [3]: > 60 µM (inconclusive)

SMILES: NC(=O)c1cc2ccncc2c2ccccc12
- EC50 [1]: 4.29 µM (active)

SMILES: C[C@@]12CCC(=O)C=C1CC[C@H]1[C@@H]2[C@@H](O)C[C@]2(C)[C@@H]1CC[C@@]2(O)C(=O)COC(=O)C1CCCC1
- AC50 (Cytochrome P450 3A4): 5.01 µM (inconclusive)

SMILES: COC(=O)[C@@]1(Cc2ccc(OC)cc2)[C@H]2c3cc(C(=O)N4CCCC4)n(Cc4cc(F)c(F)c(F)c4)c3C[C@H]2CN1C(=O)c1ccccc1
- AC50 (Cytochrome P450 2C19; read-out: AC50): 1.58 µM (inconclusive)

SMILES: CCOc1ccc(CCNC(=O)c2nn(C)c3c2CS(=O)(=O)c2ccccc2-3)cc1
- EC50 [1]: > 195 µM (not active)

SMILES: Cn1c(=N)n(CC(O)c2ccccc2)c2ccccc21 (configuration not stated)
- EC50 [1]: > 195 µM (not active)

SMILES: CCn1cc(S(=O)(=O)Nc2ccc3c(c2)OCCO3)cn1
- EC50 [1]: 1.86 µM (active)

SMILES: CCCNC(=O)c1cccc(COCC(F)(F)F)c1
- EC50 [1]: > 195 µM (not active)

SMILES: COc1ccccc1-c1cncnc1NCCNC(C)=O
- AC50 (Cytochrome P450 2C19; read-out: AC50): 39.8 µM (inconclusive)

SMILES: CCOC(=O)N1CCC(NC(=O)CCC(=O)N2CCOc3ccccc32)CC1
- AC50 (Cytochrome P450 3A4): 10 µM (inconclusive)
- AC50 (Cytochrome P450 2C19; read-out: AC50): 14.1 µM (inconclusive)

SMILES: COc1ccc(CN2CCN(Cc3csc(C(C)=O)c3)CC2CCO)c(C)c1C (configuration not stated)
- EC50 [2]: 0.284 µM (active)
- EC50 [3]: > 60 µM (not active)

SMILES: Cc1ccc(C(=O)N(CCCN(C)C)c2nc3ccc(Cl)cc3s2)cc1C
- EC50 [2]: 0.216 µM (active)
- EC50 [3]: > 60 µM (inconclusive)

SMILES: O=S(=O)(NCC(c1cccnc1)N1CCN(Cc2ccccc2)CC1)c1ccc(Cl)cc1 (configuration not stated)
- EC50 [2]: 0.641 µM (active)
- EC50 [3]: > 60 µM (not active)

SMILES: COCCn1c(=O)[nH]c2cc(C(=O)N3CCN(c4ccccc4OC)CC3)ccc2c1=O
- AC50 (Cytochrome P450 3A4): 14.1 µM (inconclusive)
- AC50 (Cytochrome P450 2C19; read-out: AC50): 6.31 µM (inconclusive)

SMILES: COC(=O)C/C=C\[C@@H](C)[C@@H](/C=N\OC[C@@H](C)[C@H](OCc1ccccc1)C(C)C)OC
- AC50 (Cytochrome P450 3A4): 3.16 µM (inconclusive)
- AC50 (Cytochrome P450 2C9): 3.16 µM (inconclusive)
- AC50 (Cytochrome P450 2C19; read-out: AC50): 2 µM (inconclusive)

SMILES: CN1CCN(c2ccc(S(=O)(=O)N3CCOCC3)cc2NC(=O)CCc2ccccc2)CC1
- EC50 [2]: 1.58 µM (active)
- EC50 [3]: > 30 µM (not active)

SMILES: N#Cc1ccccc1-c1ccc2ncnc(NCc3cccs3)c2c1
- AC50 (Cytochrome P450 2C9): 1 µM (inconclusive)
- AC50 (Cytochrome P450 2C19; read-out: AC50): 39.8 µM (inconclusive)

SMILES: O=C(Oc1ccccc1)N1CCC2(CCCN(c3ccccc3)C2)CC1
- AC50 (Cytochrome P450 3A4): 31.6 µM (inconclusive)
- AC50 (Cytochrome P450 2C9): 12.6 µM (inconclusive)

SMILES: COc1ccc(/C=C/C(=O)OCCCN(C)C)cc1
- EC50 [2]: 0.237 µM (active)
- EC50 [3]: > 60 µM (not active)

SMILES: COc1cc(NC(=O)N[C@@H](Cc2c[nH]c3ccccc23)C(=O)O)c(C(=O)O)cc1OC
- EC50 [1]: > 195 µM (not active)

SMILES: CCC(=O)N1CCc2cc(S(=O)(=O)NC(C(=O)NCc3ccc(C)cc3)C(C)C)ccc21 (configuration not stated)
- EC50 [1]: > 195 µM (not active)

SMILES: CCOC(=O)c1c(C)nc2c(c1-c1ccccc1)C(=O)CC(C)(C)C2
- AC50 (Cytochrome P450 2C9): 15.8 µM (inconclusive)

SMILES: CC(=O)OC1N=C(c2ccccc2)c2cc(Br)ccc2N(C)C1=O (configuration not stated)
- AC50 (Cytochrome P450 2C9): 17.8 µM (inconclusive)
- AC50 (Cytochrome P450 2C19; read-out: AC50): 39.8 µM (inconclusive)

SMILES: CC(C)(C)C(=O)N1CCC(O)(CS(=O)(=O)Cc2ccc(Cl)cc2)CC1
- AC50 (Cytochrome P450 3A4): 20 µM (inconclusive)

SMILES: C/C(=N\NC(=O)c1c(C)nc2ccccn12)c1ccc(C(C)(C)C)cc1
- EC50 [1]: > 195 µM (not active)

SMILES: CCc1nnc(N/N=C\c2ccc(OC(C)=O)c(OC)c2)n1N
- EC50 [1]: > 195 µM (not active)

SMILES: C/C(=N\N(Cc1ccccc1)c1ccccc1)c1cccnc1
- EC50 [2]: 3.78 µM (active)
- EC50 [3]: > 60 µM (not active)

SMILES: Cc1cc(C)c(S(=O)(=O)N/N=C/c2ccc3c(c2)OCO3)c(C)c1
- EC50 [1]: > 195 µM (not active)

SMILES: Cc1[nH]n(-c2ccccc2)c(=O)c1/N=N/c1cccc([N+](=O)[O-])c1
- EC50 [2]: > 30 µM (not active)
- EC50 [3]: > 60 µM (not active)

SMILES: CC1=C(CC(=O)O)c2cc(F)ccc2/C1=C\c1ccc(S(C)(=O)=O)cc1 [EXISULIND]
- AC50 (Cytochrome P450 2C19): inconclusive
